Experiments:
[1] = tested on: MRD subpopulation gene signatures; assay: Analysis of available RNASeq data of melanoma patients on immunotherapy (Riaz et al. 2017); design: species or system human; settings: patient subgroups SD+PD versus CR+PR; results not shown
Source text: Although the therapy selecting for these 4 MRD-stage subpopulations as applied in the Examples herein relies on combined inhibition of BRAF and MEK kinases, it can be envisaged that other therapeutic modalities also give rise to the emergence of the same or some of these 4 MRD-stage subpopulations. […] Likewise, targeted therapies of cancers other than melanoma can lead to a MRD phase during which one or more of the MRD subpopulations as identified herein for melanoma are present. Such targeted therapies include e.g. anti-VEGF (bevacizumab), anti-EGFR (cetuximab, erlotinib), mTOR inhibition (everolimus), Tyr-kinase inhibitor/anti-EGFR (gefitinib), Tyr-kinase inhibition/BCR-ABL inhibition (imatinib), anti-HER2/anti-EGFR (lapatinib), and Tyr-kinase inhibition (sorafenib, sunitinib). On the one hand, as described above, different therapies targeting melanoma can be expected to induce all or part of the minimal residual disease tumor subpopulations as described herein. On the other hand, it can be envisaged that inhibition of the MAPK-pathway (with BRAF and/or MEK inhibitors) is inducing in cancers or tumors different from melanoma one or more minimal residual disease tumor subpopulations as described herein for melanoma.

[2] = tested on: GFRA2-positive MEL006 cells; assay: FACS of GFRA2-positive cells (NDTCs) in MEL006 cultures
Method: Cells were resuspended in FACS sorting buffer (culture medium supplied with 1% EDTA 100 mM).

MM052 melanoma cells = assay: Colony assay and Cell Titer Glo assay in short culture melanoma line
Method: Cells were grown to near confluency on 12well plates and treated with the indicated drug combinations for the indicated time period.
2500 cells were plated onto a 96well plate and treated with the indicated drug combinations for the indicated time period. Cell Titer Glo assay was performed according to the manufacturer's instruction (Promega) and luminescence was measured on a VictorX3 (Perkin Elmer).

wild-type cells (MM163) = assay: GFRA2 expression (RT-qPCR) in short-term melanoma culture; assay type: cell-based, human; settings: triple wild-type culture exposed to both trametinib and bexarotene
Source text: C) wild-type cells (MM163).

[3] = tested on: NRAS-mutant cells (MM165); assay: as above; settings: NRAS-mutant culture exposed to both trametinib and bexarotene
Source text: Cells resuspended in QiAzol using an miRNeasy Kit and processed according to the manufacturer's instructions (QIAGEN) or in RA1lysis buffer using the RNA NucleoSpin extraction kit (Macherey&Nagel).
Data processing with qbase+2.6 software (Biogazelle) relies on normalization with a minimum of 2 reference genes, indicated as RefGen below.

RAR = settings: pan-RXR agonist; cited from earlier work

nivolumab: PD-1 inhibitor
induction of MRD subpopulations (trend) [1]: induce at least the pigmented state and MITFmedium-hypometabolic state MRD subpopulations

CN1c2ccc([N+](=O)[O-])cc2N=C(c2ccc(C(=O)O)cc2)c2cc3c(cc21)C(C)(C)CCC3(C)C [HX531]
drug-dependent induction of GFRA2-positive cells ([2]; in presence of IC50 concentrations of the BRAF and MEK-inhibitors): completely inhibited emergence of drug-dependent induction of GFRA2-positive cells
effect on sensitivity of MM52 cells to trametinib (MM052 melanoma cells; HX531 2 uM, trametinib 2 nM, colony assay 7 days, Cell Titer Glo 6 days): sensitized these cells to trametinib

C=C(c1ccc(C(=O)O)cc1)c1cc2c(cc1C)C(C)(C)CCC2(C)C [bexarotene]
GFRA2 expression levels (wild-type cells (MM163)): increase
GFRA2 expression levels [3]: increase
effect on sensitivity to a combination of trametinib/FAK-inhibitors (MM052 melanoma cells; MM52 cells): increased the sensitivity
long-term growth inhibition (MM052 melanoma cells; MM52 culture, compound alone): did not induce measurable long-term growth inhibition
cells in which cell death occurred (MM052 melanoma cells; bexarotene with trametinib/FAK-inhibitors, after 3 days of treatment (data not shown)): ~100%
effect on sensitivity of MM52 cells to trametinib (MM052 melanoma cells; concentrations as low as 10 nM): significantly decreased the sensitivity

CN(c1ncccc1CNc1nc(Nc2ccc3c(c2)CC(=O)N3)ncc1C(F)(F)F)S(C)(=O)=O [PF-562271]
drug-dependent emergence of the GFRA2-high cell population ([2]; FAK inhibitor added to DT-treated MEL006 cells): diminished the drug-dependent emergence of the GFRA2-high cell population in a dose-dependent manner

CC1(C)CCC(C)(C)c2cc(C3(c4ccc(C(=O)O)cc4)OCCO3)ccc21 [SR 11237]
RAR activity (RAR): devoid of any RAR activity

— US20210010089A1, “TUMOR MINIMAL RESIDUAL DISEASE STRATIFICATION” (VIB VZW, priority 2018, published 2021)
